Laboratory results from the supplement of paper PMC10307832.

Assays:
Test in all cases: relative viability (nuclei count vs DMSO), 5 days (fraction); higher = more cells survive
AT-7519 + Bortezomib = compound: O=C(NC1CCNCC1)c1n[nH]cc1NC(=O)c1c(Cl)cccc1Cl [AT-7519] + CC(C)C[C@H](NC(=O)[C@H](Cc1ccccc1)NC(=O)c1cnccn1)B(O)O [Bortezomib] (partner 0.002 µM)
Summary of the method: (§1)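 Lung cancer cell lines were seeded in 1536-well plates and dosed by pin tool the next day, with either a single drug or a fixed anchor-drug dose combined with five library-drug doses (not always all listed) spaced in √10 steps. Five days later, one step fixed the cells and stained their nuclei (final 0.05% Triton X-100, 1% formaldehyde, 1 ug/ml Hoechst), and nuclei were counted on 4× images. Relative viability is the nuclei count in treated wells divided by the count in vehicle wells, and each value is the median of duplicate plates.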

AT-7519 + Linsitinib = compound: O=C(NC1CCNCC1)c1n[nH]cc1NC(=O)c1c(Cl)cccc1Cl [AT-7519] + C[C@]1(O)C[C@@H](c2nc(-c3ccc4ccc(-c5ccccc5)nc4c3)c3c(N)nccn32)C1 [Linsitinib] (partner 1 µM)
Summary of the method: as §1

[1] = compound: C1=CC2=C(C=C(C(=C2N=C1)O)N=NC3=CC4=C(C=C3)C=C(C=C4)S(=O)(=O)O)S(=O)(=O)O + O=C(c1cc(Cc2n[nH]c(=O)c3ccccc23)ccc1F)N1CCN(C(=O)C2CC2)CC1 [Olaparib] (partner 8 µM)
Summary of the method: as §1

[2] = compound: C1=CC2=C(C=C(C(=C2N=C1)O)N=NC3=CC4=C(C=C3)C=C(C=C4)S(=O)(=O)O)S(=O)(=O)O + Cc1nc(NC(=O)N2CCC[C@H]2C(N)=O)sc1-c1ccnc(C(C)(C)C(F)(F)F)c1 [Alpelisib] (partner 2 µM)
Summary of the method: as §1

Cell Line	relative viability (AT-7519 + Bortezomib; first compound 0.01 µM)	relative viability (AT-7519 + Bortezomib; first compound 0.03162 µM)	relative viability (AT-7519 + Bortezomib; first compound 0.3162 µM)	relative viability (AT-7519 + Bortezomib; first compound 1 µM)	relative viability (AT-7519 + Linsitinib; first compound 0.01 µM)	relative viability (AT-7519 + Linsitinib; first compound 0.03162 µM)	relative viability (AT-7519 + Linsitinib; first compound 0.3162 µM)	relative viability (AT-7519 + Linsitinib; first compound 1 µM)	relative viability ([1]; first compound 0.08 µM)	relative viability ([1]; first compound 0.253 µM)	relative viability ([1]; first compound 0.8 µM)	relative viability ([1]; first compound 2.53 µM)	relative viability ([1]; first compound 8 µM)	relative viability ([2]; first compound 0.08 µM)	relative viability ([2]; first compound 0.253 µM)	relative viability ([2]; first compound 0.8 µM)	relative viability ([2]; first compound 2.53 µM)	relative viability ([2]; first compound 8 µM)
HCC-44	0.752	1.02	1.01	0.979	0.677	0.62	0.678	0.543	1.02	0.945	0.956	0.982	0.933	0.867	0.786	0.779	0.893	0.893
HCC-827	1.1	1.1	1.05	1.06	0.959	0.973	0.946	0.899	0.68	0.524	0.647	0.568	0.687	1.05	0.989	0.807	0.978	1.05
NCI-H2347	0.916	0.873	0.952	1.27	1.08	1.01	0.919	0.793	0.569	0.538	0.618	0.569	0.8	1.03	0.995	1.07	1.07	1.06
PC-14	0.807	0.71	0.861	0.618	0.927	0.873	0.909	0.848	0.249	0.275	0.29	0.272	0.246	1.03	0.875	0.891	0.994	0.967
NCI-H1651	0.912	0.917	0.971	0.974	1.16	0.963	0.917	0.886	0.187	0.176	0.196	0.208	0.181	1.09	1.02	1.16	1.08	0.895
HARA	1.14	1.16	1.1	1.06	1.15	0.92	0.945	0.671	0.959	0.797	0.697	0.741	0.764	0.907	0.873	0.791	0.894	0.845
NCI-H1650	0.19	0.203	0.183	0.194	–	–	–	–	0.825	0.677	0.781	0.812	0.894	–	–	–	–	–
NCI-H1395	–	–	–	–	1.12	1.01	0.978	0.603	0.498	0.47	0.489	0.469	0.402	1.08	1.21	1.09	1.06	1.23
LU99A	1.15	1.07	1.14	0.988	0.514	0.577	0.54	0.404	0.264	0.282	0.286	0.257	0.243	0.608	0.488	0.422	0.582	0.514
NCI-H1355	1.26	1.16	1.31	1.29	0.795	0.737	0.79	0.722	0.736	0.717	0.748	0.728	0.711	0.94	0.838	0.767	0.905	0.956
HCC-78	0.479	0.38	0.6	0.516	0.52	0.452	0.567	0.374	0.971	0.908	0.733	0.801	0.811	0.406	0.325	0.319	0.345	0.266
NCI-H1563	0.874	0.905	0.901	0.85	1.2	1.25	1.25	1	–	–	–	–	–	0.931	0.94	1.07	1.11	1.1
HCC-15	1.07	1.01	0.852	0.977	0.961	0.879	0.724	0.43	0.879	0.682	0.714	0.698	0.727	0.97	0.811	0.807	0.895	0.938
EKVX	0.978	0.911	0.996	1.13	0.963	0.949	0.928	0.959	1.02	0.77	0.904	0.822	0.955	1.01	0.849	0.793	0.85	0.903
NCI-H2087	0.82	1.05	0.811	0.51	1.07	1.1	0.78	0.141	0.688	0.651	0.622	0.563	0.601	0.938	0.888	1.08	0.977	0.989
LK-2	–	–	–	–	0.514	0.448	0.368	0.255	0.892	0.678	0.581	0.74	0.728	1.12	1.1	1.12	1.08	0.935
NCI-H1437	0.448	0.514	0.494	0.307	1.14	1.17	0.81	0.344	0.617	0.611	0.655	0.638	0.613	1.06	0.995	0.935	0.94	0.929
COR-L23	0.994	0.863	0.82	0.2	0.82	0.776	0.481	0.137	0.308	0.344	0.35	0.394	0.296	0.818	0.691	0.728	0.704	0.593
